Test results from patent publication US10533000B2, “Metabotrophic glutamate receptor 5 modulators and methods of use thereof” (Sunovion Pharmaceuticals, Inc., priority 2011, dated 2020).

biological target: mGluR5 (Homo sapiens, UniProt P41594); assay: mGluR5 positive allosteric modulator (PAM) functional assay; type: cell-based
Sequence (P41594 21-1212): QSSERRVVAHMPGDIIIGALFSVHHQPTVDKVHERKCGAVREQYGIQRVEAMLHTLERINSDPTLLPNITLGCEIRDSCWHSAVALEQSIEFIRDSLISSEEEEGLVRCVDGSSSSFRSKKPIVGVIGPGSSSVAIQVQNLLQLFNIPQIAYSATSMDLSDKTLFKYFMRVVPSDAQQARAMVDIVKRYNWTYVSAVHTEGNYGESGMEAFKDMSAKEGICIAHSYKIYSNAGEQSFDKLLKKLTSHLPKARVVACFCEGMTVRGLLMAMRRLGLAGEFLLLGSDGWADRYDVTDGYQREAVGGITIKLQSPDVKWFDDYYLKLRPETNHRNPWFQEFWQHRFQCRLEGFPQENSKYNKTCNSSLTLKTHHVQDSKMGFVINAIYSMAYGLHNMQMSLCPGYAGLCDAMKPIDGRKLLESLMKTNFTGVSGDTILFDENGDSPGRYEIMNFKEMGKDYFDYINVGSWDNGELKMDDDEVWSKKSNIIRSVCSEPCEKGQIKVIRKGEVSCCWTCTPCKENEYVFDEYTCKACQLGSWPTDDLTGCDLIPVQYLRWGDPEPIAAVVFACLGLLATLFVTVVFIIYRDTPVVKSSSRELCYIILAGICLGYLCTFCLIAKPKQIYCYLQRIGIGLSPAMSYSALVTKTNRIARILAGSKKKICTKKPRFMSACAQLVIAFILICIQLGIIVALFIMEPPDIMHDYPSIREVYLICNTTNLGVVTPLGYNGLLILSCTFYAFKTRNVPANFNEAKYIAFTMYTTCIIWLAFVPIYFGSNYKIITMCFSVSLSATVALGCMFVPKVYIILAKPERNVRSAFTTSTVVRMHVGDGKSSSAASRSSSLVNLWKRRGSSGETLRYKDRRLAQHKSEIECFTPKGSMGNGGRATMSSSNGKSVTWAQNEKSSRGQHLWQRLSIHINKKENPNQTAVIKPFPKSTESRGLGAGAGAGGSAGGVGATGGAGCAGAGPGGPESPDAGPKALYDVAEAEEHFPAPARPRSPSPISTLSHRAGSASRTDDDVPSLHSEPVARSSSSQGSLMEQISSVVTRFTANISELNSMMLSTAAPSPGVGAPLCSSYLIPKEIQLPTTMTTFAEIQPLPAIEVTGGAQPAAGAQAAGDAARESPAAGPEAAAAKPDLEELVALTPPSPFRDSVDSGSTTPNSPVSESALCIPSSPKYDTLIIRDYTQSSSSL

`CCC(C)c1nc(-c2ccc(C#Cc3ccccn3)nc2)no1` (stereo not drawn) [Compound 86, 5-(sec-butyl)-3-(6-(pyridin-2-ylethynyl)pyridin-3-yl)-1,2,4-oxadiazole] and `CCC(CC)c1nc(-c2ccc(C#Cc3ccccn3)nc2)no1` [Compound 87, 5-(pentan-3-yl)-3-(6-(pyridin-2-ylethynyl)pyridin-3-yl)-1,2,4-oxadiazole] cannot be ordered by EC50: 30 to 100 nM for the first, ≤ 30 nM for the second.

First: CCC(OC)c1nc(-c2ccc(C#Cc3ccccn3)nc2)no1 (stereo not drawn) [Compound 89, 5-(1-methoxypropyl)-3-(6-(pyridin-2-ylethynyl)pyridin-3-yl)-1,2,4-oxadiazole]
Second: CCC(OC)c1nc(-c2ccc(C#Cc3ccncc3)nc2)no1 (stereo not drawn) [Compound 93]
The EC50 of the first is higher: 300 to 1000 nM for the first, 30 to 100 nM for the second.

`CCC(C)c1nc(-c2ccc(C#Cc3ccncc3)nc2)no1` (stereo not drawn) [Compound 90, 5-(sec-butyl)-3-(6-(pyridin-4-ylethynyl)pyridin-3-yl)-1,2,4-oxadiazole] and `CCC(CC)c1nc(-c2ccc(C#Cc3ccncc3)nc2)no1` [Compound 91, 5-(pentan-3-yl)-3-(6-(pyridin-4-ylethynyl)pyridin-3-yl)-1,2,4-oxadiazole] cannot be ordered by EC50: ≤ 30 nM for the first, ≤ 30 nM for the second.

First: COC(C)c1nc(-c2ccc(C#Cc3ccncc3)nc2)no1 (stereo not drawn) [Compound 92, 5-(1-methoxyethyl)-3-(6-(pyridin-4-ylethynyl)pyridin-3-yl)-1,2,4-oxadiazole]
Second: COC(C)c1nc(-c2ccc(C#Cc3cccc(F)c3)cn2)no1 (stereo not drawn) [Compound 96, 3-(5-((3-fluorophenyl)ethynyl)pyridin-2-yl)-5-(1-methoxyethyl)-1,2,4-oxadiazole]
The EC50 of the first is higher: 100 to 300 nM for the first, ≤ 30 nM for the second.

`CCC(C)c1nc(-c2ccc(C#Cc3cccc(F)c3)cn2)no1` (stereo not drawn) [Compound 94, 5-(sec-butyl)-3-(5-((3-fluorophenyl)ethynyl)pyridin-2-yl)-1,2,4-oxadiazole] and `CCC(OC)c1nc(-c2ccc(C#Cc3cccc(F)c3)cn2)no1` (stereo not drawn) [Compound 97, 3-(5-((3-fluorophenyl)ethynyl)pyridin-2-yl)-5-(1-methoxypropyl)-1,2,4-oxadiazole] cannot be ordered by EC50: ≤ 30 nM for the first, ≤ 30 nM for the second.

`Fc1cccc(C#Cc2ccc(-c3noc(C4CCCC4)n3)nc2)c1` [Compound 95, 5-cyclopentyl-3-(5-((3-fluorophenyl)ethynyl)pyridin-2-yl)-1,2,4-oxadiazole] and `CN1CCC1c1nc(-c2ccc(C#Cc3cccc(F)c3)cn2)no1` (stereo not drawn) [Compound 101, 3-(5-((3-fluorophenyl)ethynyl)pyridin-2-yl)-5-(1-methylazetidin-2-yl)-1,2,4-oxadiazole] cannot be ordered by EC50: ≤ 30 nM for the first, 30 to 100 nM for the second.

Compared with `Fc1cccc(C#Cc2ccc(-c3noc(C4COCCN4)n3)nc2)c1` (stereo not drawn) [Compound 98], `CNCc1nc(-c2ccc(C#Cc3cccc(F)c3)cn2)no1` [Compound 102, 1-(3-(5-((3-fluorophenyl)ethynyl)pyridin-2-yl)-1,2,4-oxadiazol-5-yl)-N-methylmethanamine] is higher in EC50: 30 to 100 nM for the first, 300 to 1000 nM for the second.

First: CC(C)(C)OC(=O)N1CCC1c1nc(-c2ccc(C#Cc3cccc(F)c3)cn2)no1 (stereo not drawn) [Compound 99, tert-butyl 2-(3-(5-((3-fluorophenyl)ethynyl)pyridin-2-yl)-1,2,4-oxadiazol-5-yl)azetidine-1-carboxylate]
Second: CC(c1nc(-c2ccc(C#Cc3cccc(F)c3)cn2)no1)N(C)C (stereo not drawn) [Compound 104, 1-(3-(5-((3-fluorophenyl)ethynyl)pyridin-2-yl)-1,2,4-oxadiazol-5-yl)-N,N-dimethylethanamine]
The EC50 of the first is higher: 300 to 1000 nM for the first, 100 to 300 nM for the second.

`CN(C)Cc1nc(-c2ccc(C#Cc3cccc(F)c3)cn2)no1` [Compound 103, 1-(3-(5-((3-fluorophenyl)ethynyl)pyridin-2-yl)-1,2,4-oxadiazol-5-yl)-N,N-dimethylmethanamine] and `C[C@H](c1nc(-c2ccc(C#Cc3cccc(F)c3)cn2)no1)N(C)C` [Compound 105, (R)-1-(3-(5-((3-fluorophenyl)ethynyl)pyridin-2-yl)-1,2,4-oxadiazol-5-yl)-N,N-dimethylethanamine] fall in the same range of EC50: 30 to 100 nM for the first, 30 to 100 nM for the second.
